These results are taken from patent publication US11584961B2, “Biomarkers for inflammatory skin disease” (Incyte Corporation, priority 2018, dated 2023).

Test [1] relates to mild to moderate plaque psoriasis. As to the kind of experiment: Double-blind, randomized, vehicle controlled dose ranging study of topical ruxolitinib (INCB018424) in plaque psoriasis, PASI response at day 28 and day 84 (Example 4). In kind it is in vivo, human. Particulars: for Classification: therapeutic response at day 84, individual subjects; for % Change in PASI at Day 28 / % Change in PASI at Day 84: individual subjects.

Test [2] shares this test system. As to the kind of experiment: Study of topical ruxolitinib (INCB018424) cream in plaque psoriasis, PASI response at day 28 (Example 1). It is filed as in vivo, human. To be noted: for Classification: therapeutic response at day 28, individual subjects; for % Change in PASI at Day 28: individual subjects.

Molecules are shown by their SMILES. Values joined by “and” are separate entries in the source; they are usually repeats but may differ in a detail not shown here. Equal values may be shown once. “Also recorded” adds a separate entry of the source.

On to `N#CC[C@H](C1CCCC1)n1cc(-c2ncnc3[nH]ccc23)cn1` [INCB018424, (3R)-3-cyclopentyl-3-[4-(7H-pyrrolo[2,3-d]pyrimidin-4-yl)-1H-pyrazol-1-yl]propanenitrile], for which the Classification result in test [1] (0.5% QD) was “Responder (individuals were classified as responders if they had >=50% improvement in psoriasis area severity index on day 84); also recorded: Non-Responder”; in test [1] (1.0% QD), “Non-Responder; also recorded: Responder (individuals were classified as responders if they had >=50% improvement in psoriasis area severity index on day 84)”; in test [1] (1.5% QD) it was “Non-Responder; also recorded: Responder (individuals were classified as responders if they had >=50% improvement in psoriasis area severity index on day 84)”; in test [2] (1.0% BID), “Responder”; in test [2] (1.5% BID), “Responder; also recorded: Non-Responder”; in test [2] (1.5% QD), “Non-Responder; also recorded: Responder”. In addition, the “% Change in PASI at Day 28” value in test [1] (topical cream 0.5% QD) was −16.7% (2×) and −23.5% and −51.7% and −12.5% and −27.8%; in test [1] (topical cream 1.0% QD), −15.3% and 0% and 83.3%; in test [1] (topical cream 1.5% QD) it was −12.6% and −4.7% and −28% and −50% and −32%; in test [2] (topical cream 1.0% BID), −60.0% and −66.7% (2×); in test [2] (topical cream 1.5% BID), −85.7% and −40.0% (2×) and −33.3% and −50.0% and −60.0%; in test [2] (topical cream 1.5% QD) it was −33.3% and −80.0% and −50.0%. The “% Change in PASI at Day 84” value in test [1] (topical cream 0.5% QD) is −75% and −50% and −23.5% and −66.7% and −12.5% and −45.9%; in test [1] (topical cream 1.0% QD), 0% and −66.7% and 77.8%; in test [1] (topical cream 1.5% QD), −12.6% and −42.5% and −30% and −84.8% and −64%.
